Data reported in patent US20110213236A1, “THERAPEUTIC COMPOSITIONS, DEVICES AND METHODS FOR OBSERVING TREATED TISSUES” (IMMUNOPATH PROFILE, INC., priority 2008, published 2011).

How the values were obtained:
Assay type in all cases: in vivo, human
[1] = system: degenerative osteoarthritis of the knee; experiment: Degenerative osteoarthritis of the knee and pulled ligament, lotion; settings: 600 mg
Description: A dentist was diagnosed with degenerative osteoarthritis of the left knee in 2001, by an orthopedic surgeon at the Henry Ford Health System in Farmington Hillsi Mich. At that time, they were […], and was working 55 hours per week at their dental practice. The orthopedic surgeon advised a complete knee replacement since the joint space was minimal as per the M.Rt. The meniscus had worn away from athletics and job requirements. The option was chosen of using occasional steroid injections in times of severe inflammation along with the daily use of Celebrex until they could no longer function, rather than have such an irreversible traumatic operation, at their age. The doctor agreed. Their quality of life was affected as was their comfort during work.
A few years later, the right knee ligaments were starting to weaken resulting in much pain and dysfunction, the now patient's gait was hobbled to a severe limp.
A composition of the subject invention in lotion form was applied twice daily after warming the area with a moist-heat heating pad for a few minutes.
Plans for a knee replacement were put on hold. The patient subsequently suffered a ligament pulled ligament in the groin. The ligament was also treated with the same composition In three days the pain was gone.

[2] = system: gout; experiment: Gout; settings: locally added to the transdermal cream
Source text: This acute musculoskeletal strain and severe foot pain occurred when getting out of bed, and standing with bare feet. The strain was associated with extensive standing and walking without their customary shoe arch support. […] The use of Advil liquid filled capsules solubilized ibuprofen locally added to the transdermal cream expedited the reversal of acute gout after one-two applications.
When used transdermally on all these examples, the permeability was increased with the subsequent use of the heating pad, but in the case of the Gout, it was used at its mildest level. […] In the treatment of Gout, the patient responded first to the Resveratrol enriched transdermal cream as in Example Group 2 locally applied used 3 times daily, with Garlic powder by Oregon Wild Harvest, specially processed, air-dried, and ground with a water-cooled grinding system to avoid generating heat, was sprinkled onto the wound as an anti-fungal agent derived from the cloves and root system of the Garlic plant and serving as a GRAS item to impart the innate immunity found in the defensin adaptogen of the plant, with good success.

[3] = system: atrial fibrillation; experiment: Atrial fibrillation patient treated with Cardizem and subject composition
Source text: We see the same effect in the remarkable drug, Levodopa, in the treatment of Parkinsonism with the side effects of stroke, heart attack, and substantia nigra, basal ganglia damage. […] The total studies were almost 30,000 in number and BIOMARKERS TISSUE […] AND […] TARGETS FOR CARDIAC […] Cardiac arrhythmia nutritional deficiencies, 496 studies compared with:
Vitamin B1 was cited as the most critical of preventing and reversing arrhythmia in starvation studies. Omega-3 fish oil was shown pre-clinically to be effective in the animal heart studies: after it was digested from and enzymatic release from glycerol was not only shown by Leaf in vitro in the isolated beating animal heart muscle to prevent toxicity effects of toxic chemicals. On our chemical moiety orientated spreadsheet where we listed more than 1,400 studies documenting the efficacy of magnesium.
With complete components listed in the spreadsheet of indicated diseases, giving a more complete list, provides by maximizing and optimizing efficacy and safety in the foregoing subject composition free of undesirable effects not only for the treatment of disease but for averting these undesirable side-effects. […]

## CC(C)Cc1ccc(C(C)C(=O)O)cc1 (stereo not drawn) [Ibuprofen]
[1]
  effect on knee pain and dysfunction: helpful but not therapeutic

## CC(C)Cc1ccc(C(C)C(=O)O)cc1 (stereo not drawn) [Advil, ibuprofen]
[2]
  applications until reversal of acute gout: one-two

## COc1ccc([C@@H]2Sc3ccccc3N(CCN(C)C)C(=O)[C@@H]2OC(C)=O)cc1 [Cardizem]
[3]
  side effects on the second dose: pain, inability to walk, and weakness
